This is an account of results in ChEMBL document CHEMBL1144036, “Bornyl (3,4,5-trihydroxy)-cinnamate--an optimized human neutrophil elastase inhibitor designed by free energy calculations” (Bioorg Med Chem, 2008).

The target in this experiment is T1, Neutrophil elastase (Homo sapiens, UniProt P08246).
T1 sequence (P08246 whole entry): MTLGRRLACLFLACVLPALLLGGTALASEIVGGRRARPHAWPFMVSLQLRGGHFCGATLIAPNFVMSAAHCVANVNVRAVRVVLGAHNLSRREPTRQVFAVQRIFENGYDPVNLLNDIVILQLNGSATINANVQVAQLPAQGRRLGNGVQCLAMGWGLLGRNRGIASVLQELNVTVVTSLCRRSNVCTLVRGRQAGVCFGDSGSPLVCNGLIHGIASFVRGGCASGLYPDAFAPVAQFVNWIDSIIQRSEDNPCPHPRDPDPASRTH
Kind of experiment: Inhibition of human neutrophil elastase.

Structures are written as SMILES.

What is called IC50 is the concentration that inhibits the measured activity by half. Lower therefore signals greater potency. On to `CC1(C)C2CC[C@]1(C)C(OC(=O)/C=C/c1ccc(O)c(O)c1)C2` (some centres not stated), for which the IC50 was found to be 1560 nM.
With `CC1(C)C2CC[C@]1(C)C(OC(=O)/C=C/c1cc(O)c(O)c(O)c1)C2` (some centres not stated), the IC50 was 540 nM.
